Test results: ChEMBL document CHEMBL1201862, “PubChem BioAssay data set” (2004)
The source made the active and inactive calls.

How the values were obtained:
[1] = biological target: T1, Sentrin-specific protease 6 (Homo sapiens, UniProt Q9GZR1); type: functional;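 note: Luminescence-based dose-response confirmatory assay of SENP6 inhibition, following up an ultra-high-throughput screen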
T1 sequence (Q9GZR1 whole entry): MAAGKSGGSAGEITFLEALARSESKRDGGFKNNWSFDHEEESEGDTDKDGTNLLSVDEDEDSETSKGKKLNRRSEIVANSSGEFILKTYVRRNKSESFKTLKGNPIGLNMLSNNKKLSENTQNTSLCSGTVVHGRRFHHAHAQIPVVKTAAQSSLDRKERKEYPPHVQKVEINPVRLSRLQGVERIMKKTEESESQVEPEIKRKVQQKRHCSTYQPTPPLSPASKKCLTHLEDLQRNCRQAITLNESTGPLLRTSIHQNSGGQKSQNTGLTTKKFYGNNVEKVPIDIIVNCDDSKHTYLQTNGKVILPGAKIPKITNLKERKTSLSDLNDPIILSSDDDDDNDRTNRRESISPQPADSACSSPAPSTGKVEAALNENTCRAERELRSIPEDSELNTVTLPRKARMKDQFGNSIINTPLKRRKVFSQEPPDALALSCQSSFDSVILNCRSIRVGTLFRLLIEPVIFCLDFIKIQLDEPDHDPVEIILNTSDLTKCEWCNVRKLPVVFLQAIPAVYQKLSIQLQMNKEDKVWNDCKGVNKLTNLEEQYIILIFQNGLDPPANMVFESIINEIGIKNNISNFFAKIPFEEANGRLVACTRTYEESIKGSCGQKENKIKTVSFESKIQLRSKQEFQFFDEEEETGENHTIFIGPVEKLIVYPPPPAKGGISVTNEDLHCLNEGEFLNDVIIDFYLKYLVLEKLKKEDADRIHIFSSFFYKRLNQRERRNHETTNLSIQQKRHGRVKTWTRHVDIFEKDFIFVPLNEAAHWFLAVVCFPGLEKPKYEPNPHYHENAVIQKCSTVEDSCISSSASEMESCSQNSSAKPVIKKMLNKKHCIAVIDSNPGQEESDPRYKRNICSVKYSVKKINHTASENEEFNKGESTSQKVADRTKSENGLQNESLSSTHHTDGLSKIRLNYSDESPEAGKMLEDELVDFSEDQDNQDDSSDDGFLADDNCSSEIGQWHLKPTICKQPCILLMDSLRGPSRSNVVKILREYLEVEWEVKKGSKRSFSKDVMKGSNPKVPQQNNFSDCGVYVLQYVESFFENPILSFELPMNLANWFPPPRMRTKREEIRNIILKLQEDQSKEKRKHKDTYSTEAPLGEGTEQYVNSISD

[2] = biological target: T2, Sentrin-specific protease 7 (Homo sapiens, UniProt Q9BQF6); type: functional;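 note: Luminescence-based dose-response confirmation of ultra-high-throughput screening hits, measuring inhibition of SENP7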
T2 sequence (Q9BQF6 whole entry): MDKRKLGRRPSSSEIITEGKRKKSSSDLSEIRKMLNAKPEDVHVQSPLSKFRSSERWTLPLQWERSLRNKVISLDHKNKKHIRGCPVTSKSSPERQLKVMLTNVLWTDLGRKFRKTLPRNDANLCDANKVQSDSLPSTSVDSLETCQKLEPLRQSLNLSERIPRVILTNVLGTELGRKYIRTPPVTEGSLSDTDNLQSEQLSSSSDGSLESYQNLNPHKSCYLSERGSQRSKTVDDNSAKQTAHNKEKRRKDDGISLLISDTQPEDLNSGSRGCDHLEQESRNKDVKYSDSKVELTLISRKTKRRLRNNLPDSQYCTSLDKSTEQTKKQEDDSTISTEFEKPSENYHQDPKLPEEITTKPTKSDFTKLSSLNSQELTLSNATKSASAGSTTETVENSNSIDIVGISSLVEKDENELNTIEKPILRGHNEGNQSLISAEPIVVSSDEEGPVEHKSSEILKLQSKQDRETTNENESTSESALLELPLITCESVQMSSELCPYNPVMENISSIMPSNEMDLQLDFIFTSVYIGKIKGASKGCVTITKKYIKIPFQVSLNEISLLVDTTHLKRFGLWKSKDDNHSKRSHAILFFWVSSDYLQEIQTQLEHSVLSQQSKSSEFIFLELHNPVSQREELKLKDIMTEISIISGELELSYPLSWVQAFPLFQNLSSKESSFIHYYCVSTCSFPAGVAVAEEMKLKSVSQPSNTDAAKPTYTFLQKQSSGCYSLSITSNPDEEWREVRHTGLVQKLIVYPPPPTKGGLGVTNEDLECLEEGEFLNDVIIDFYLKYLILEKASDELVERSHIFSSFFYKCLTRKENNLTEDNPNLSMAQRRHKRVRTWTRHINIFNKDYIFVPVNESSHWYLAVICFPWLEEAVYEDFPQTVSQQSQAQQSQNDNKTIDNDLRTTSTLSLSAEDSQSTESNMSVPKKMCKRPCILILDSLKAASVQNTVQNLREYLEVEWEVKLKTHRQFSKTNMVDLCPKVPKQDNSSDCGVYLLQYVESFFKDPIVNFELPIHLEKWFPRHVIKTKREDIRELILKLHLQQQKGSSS

[3] = biological target: T3, Caspase-3 (Homo sapiens, UniProt P42574); type: functional;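 note: Dose-response selectivity test against caspase-3 for candidate inhibitors of sentrin-specific proteases (SENPs)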
T3 sequence (P42574 whole entry): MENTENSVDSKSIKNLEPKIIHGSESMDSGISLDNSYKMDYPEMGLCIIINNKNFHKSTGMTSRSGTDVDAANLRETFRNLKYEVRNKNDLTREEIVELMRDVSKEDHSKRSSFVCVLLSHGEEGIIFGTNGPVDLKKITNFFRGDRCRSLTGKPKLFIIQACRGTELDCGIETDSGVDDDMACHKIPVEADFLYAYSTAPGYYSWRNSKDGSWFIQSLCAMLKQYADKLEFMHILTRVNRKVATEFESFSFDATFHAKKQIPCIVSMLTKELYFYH

[4] = biological target: T4, Sentrin-specific protease 8 (Homo sapiens, UniProt Q96LD8); type: functional;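 note: luminescence read-out of SENP8 inhibition, dose-response confirmation following an ultra-high-throughput screen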
T4 sequence (Q96LD8 whole entry): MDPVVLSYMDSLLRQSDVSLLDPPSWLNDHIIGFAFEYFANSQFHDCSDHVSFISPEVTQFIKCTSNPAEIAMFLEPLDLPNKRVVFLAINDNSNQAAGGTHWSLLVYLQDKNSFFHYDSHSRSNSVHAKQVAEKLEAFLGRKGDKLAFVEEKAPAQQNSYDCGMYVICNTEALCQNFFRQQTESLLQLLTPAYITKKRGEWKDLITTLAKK

[5] = inhibitors of intracellular T. cruzi replication, confirmation, NIH3T3 host cells, beta-gal luminescence (AID 2044); type: functional, cell-based;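 note: intracellular parasites grown in NIH/3T3 mouse fibroblasts as host cells; luminescent beta-galactosidase reporter signal from transgenic T. cruzi replicating inside host cells; inhibitors lower the luminescence signal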
[6] = NIH-3T3 fibroblast cytotoxicity, dose response, cytotoxicity control, cell-based, fluorescence, Alamar Blue, secondary assay (AID 2327); type: functional;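 note: NIH-3T3 mouse fibroblasts cultured with fluconazole at 8 µg/mL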
[7] = C. albicans growth with fluconazole, confirmation, fluorescence, retest (AID 2467); type: functional, cell-based
[8] = system: INS1; test: beta cell apoptosis inhibitors, cytokine rescue, dose response, luminescence, retest (AID 449756); type: functional, cell-based; conditions: Rattus norvegicus;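 note: cell death triggered by IL-1 beta plus TNF-alpha plus IFN-gamma mixture; protective hits raise ATP signal compared with cytokine alone wells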
[9] = HepG2 cell cytotoxicity, dose response, cytotoxicity control for Shn3 inhibitor project, CellTiter-Glo, cherry-picked (AID 624134); type: functional, cell-based
[10] = biological target: T5, Serine/threonine-protein phosphatase (Candida dubliniensis (strain CD36 / CBS 7987 / NCPF 3949 / NRRLY-17841) (Yeast), UniProt B9W6M3); test: calcineurin pathway inhibitors in yeast reporter, dose response, S. cerevisiae, CDRE-lacZ, luminescence, secondary (AID 2388); type: functional, cell-based;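 note: yeast reporter cells carrying a calcineurin-responsive lacZ construct stimulated with calcium chloride; luminescent beta-galactosidase reporter signal in whole cells rather than isolated phosphatase activity; potency for inhibition where a drop in reporter signal means calcineurin blockade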
T5 sequence (B9W6M3 whole entry): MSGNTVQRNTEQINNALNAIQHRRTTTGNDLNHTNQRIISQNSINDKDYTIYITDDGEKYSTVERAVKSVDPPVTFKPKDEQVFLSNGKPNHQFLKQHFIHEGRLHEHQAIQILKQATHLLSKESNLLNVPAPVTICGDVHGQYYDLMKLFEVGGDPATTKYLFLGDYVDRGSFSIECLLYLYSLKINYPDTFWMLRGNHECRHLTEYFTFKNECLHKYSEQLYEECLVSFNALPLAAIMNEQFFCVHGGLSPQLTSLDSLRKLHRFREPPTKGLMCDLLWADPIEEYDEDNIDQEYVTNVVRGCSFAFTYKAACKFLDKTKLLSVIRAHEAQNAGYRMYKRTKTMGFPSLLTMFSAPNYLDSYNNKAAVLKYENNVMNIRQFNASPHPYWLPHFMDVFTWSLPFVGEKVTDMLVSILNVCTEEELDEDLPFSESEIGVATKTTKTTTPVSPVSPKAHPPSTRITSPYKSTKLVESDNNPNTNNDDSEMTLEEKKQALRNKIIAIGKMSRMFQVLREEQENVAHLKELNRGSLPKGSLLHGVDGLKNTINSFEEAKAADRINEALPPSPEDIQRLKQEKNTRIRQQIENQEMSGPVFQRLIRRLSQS

[11] = biological target: T6, Heat shock factor protein 1 (Mus musculus, UniProt P38532); test: inhibition of MG132-induced HSE-luciferase signal, confirmation, cell-based, NIH3T3, luminescence, dose retest (AID 2382); type: functional;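 note: NIH3T3 fibroblasts with HSF1-driven luciferase reporter stressed by proteasome inhibitor MG132; luminescence from HSF1-driven luciferase expression after 8 hours of MG132 stress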
T6 sequence (P38532 whole entry): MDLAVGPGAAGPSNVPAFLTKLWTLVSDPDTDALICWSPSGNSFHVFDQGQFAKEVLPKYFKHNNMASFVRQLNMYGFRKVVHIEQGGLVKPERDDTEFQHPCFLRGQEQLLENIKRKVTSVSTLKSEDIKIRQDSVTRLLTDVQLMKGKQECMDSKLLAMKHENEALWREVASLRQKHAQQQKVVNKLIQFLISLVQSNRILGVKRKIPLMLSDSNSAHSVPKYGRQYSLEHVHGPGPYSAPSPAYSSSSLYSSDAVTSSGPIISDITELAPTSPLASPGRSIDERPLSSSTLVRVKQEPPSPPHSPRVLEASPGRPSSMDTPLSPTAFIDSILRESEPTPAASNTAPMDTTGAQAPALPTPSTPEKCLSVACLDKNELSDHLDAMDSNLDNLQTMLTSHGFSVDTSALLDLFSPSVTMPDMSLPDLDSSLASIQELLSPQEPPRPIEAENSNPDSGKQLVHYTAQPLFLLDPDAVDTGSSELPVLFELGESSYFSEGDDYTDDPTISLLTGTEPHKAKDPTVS

[12] = system: A-375; test: MITF: Counter assay: A375 proliferation Measured in Cell-Based System Using Plate Reader - 2084-03_Inhibitor_Dose_DryPowder_Activity. [Related pubchem assays (depositor defined):AID488944]; type: functional; conditions: Homo sapiens
[13] = biological target: T7, Microphthalmia-associated transcription factor (Homo sapiens, UniProt O75030); test: TRPM1 promoter luciferase signal decrease, dose response, MITF inhibitor project, cell-based, SK-MEL-5, cherry-picked, set 3 (AID 493073); type: functional
T7 sequence (O75030 whole entry): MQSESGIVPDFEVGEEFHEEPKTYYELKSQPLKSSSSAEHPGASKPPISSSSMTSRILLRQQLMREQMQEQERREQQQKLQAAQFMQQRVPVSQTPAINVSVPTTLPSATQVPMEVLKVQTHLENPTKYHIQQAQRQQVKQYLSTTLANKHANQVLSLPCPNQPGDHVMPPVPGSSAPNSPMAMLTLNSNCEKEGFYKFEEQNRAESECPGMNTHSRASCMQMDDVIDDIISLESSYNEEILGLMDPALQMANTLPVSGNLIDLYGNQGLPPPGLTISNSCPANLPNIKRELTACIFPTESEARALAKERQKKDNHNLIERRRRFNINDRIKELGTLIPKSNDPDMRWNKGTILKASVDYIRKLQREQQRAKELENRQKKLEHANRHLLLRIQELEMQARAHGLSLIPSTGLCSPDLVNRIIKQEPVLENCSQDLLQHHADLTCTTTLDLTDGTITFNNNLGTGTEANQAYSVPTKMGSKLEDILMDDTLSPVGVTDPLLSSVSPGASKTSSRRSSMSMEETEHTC

[14] = cytotoxicity toward NIH3T3 fibroblasts, dose response, counter-screen, cell-based, ATP luminescence, mouse fibroblasts (AID 2010); type: functional;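 note: cells exposed to compound for about 90 hours before reading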
[15] = biological target: Photoreceptor-specific nuclear receptor (Homo sapiens, UniProt Q9Y5X4); type: functional, cell-based;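 note: CHO-S cells with Gal4-NCOR and VP16-NR2E3 two-hybrid luciferase reporter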
Chain of Photoreceptor-specific nuclear receptor (Q9Y5X4 whole entry, the tested form may be a part): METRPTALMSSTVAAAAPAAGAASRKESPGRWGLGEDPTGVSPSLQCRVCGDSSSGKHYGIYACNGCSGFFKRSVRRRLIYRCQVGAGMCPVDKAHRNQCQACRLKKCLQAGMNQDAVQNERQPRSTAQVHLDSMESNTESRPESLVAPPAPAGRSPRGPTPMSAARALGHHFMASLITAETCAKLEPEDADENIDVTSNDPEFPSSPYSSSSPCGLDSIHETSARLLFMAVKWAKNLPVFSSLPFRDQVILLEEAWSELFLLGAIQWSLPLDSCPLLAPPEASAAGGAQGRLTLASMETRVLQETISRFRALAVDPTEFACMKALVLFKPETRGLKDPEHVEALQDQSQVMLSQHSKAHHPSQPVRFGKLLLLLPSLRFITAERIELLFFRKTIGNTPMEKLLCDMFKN

[16] = Shn3 3'UTR reporter inhibitors, dose response, cell-based, Clone20 osteoblasts, firefly luciferase, cherry-picked (AID 624132); type: functional;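 note: firefly luciferase luminescence from reporter carrying the Shn3 3'UTR in osteoblasts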
[17] = control 3'UTR Renilla luciferase suppression, dose response, counter-screen for Shn3 inhibitor project, cell-based, Clone20-Shn3RL, cherry-picked (AID 624133); type: functional
[18] = biological target: ATP-dependent molecular chaperone HSP82 (Candida albicans (strain WO-1) (Yeast), UniProt C4YTQ8); test: loss of DOC-induced GRE-beta-galactosidase reporter signal, dose response, Hsp90 inhibitor project, S. cerevisiae, luminescence (AID 2400); type: functional, cell-based;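 note: beta-galactosidase luminescence from glucocorticoid response element reporter as proxy for Hsp90 function; inhibitor potency where signal loss means Hsp90 inhibition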
Chain of ATP-dependent molecular chaperone HSP82 (C4YTQ8 whole entry): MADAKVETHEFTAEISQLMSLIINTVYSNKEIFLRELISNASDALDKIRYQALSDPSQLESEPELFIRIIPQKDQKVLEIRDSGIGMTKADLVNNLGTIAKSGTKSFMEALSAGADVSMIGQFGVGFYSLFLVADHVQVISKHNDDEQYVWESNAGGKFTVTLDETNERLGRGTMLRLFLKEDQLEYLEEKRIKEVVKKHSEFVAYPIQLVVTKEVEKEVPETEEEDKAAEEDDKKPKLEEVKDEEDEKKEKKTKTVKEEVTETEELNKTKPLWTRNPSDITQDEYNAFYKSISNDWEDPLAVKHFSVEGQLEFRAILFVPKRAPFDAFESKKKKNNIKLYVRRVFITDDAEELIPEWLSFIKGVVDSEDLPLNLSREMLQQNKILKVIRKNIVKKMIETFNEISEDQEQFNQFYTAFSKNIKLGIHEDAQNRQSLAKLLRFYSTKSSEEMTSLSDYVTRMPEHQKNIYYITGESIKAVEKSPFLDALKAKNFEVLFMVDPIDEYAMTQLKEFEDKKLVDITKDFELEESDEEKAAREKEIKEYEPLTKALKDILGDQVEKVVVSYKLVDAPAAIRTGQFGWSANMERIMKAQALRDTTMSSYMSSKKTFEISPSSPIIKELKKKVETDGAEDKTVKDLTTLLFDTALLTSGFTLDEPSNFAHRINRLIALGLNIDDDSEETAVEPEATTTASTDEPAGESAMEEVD

[19] = biological target: Nonstructural protein 1 (Influenza A virus, UniProt Q194T2); type: functional, Influenza A virus (A/California/07/2009(H1N1))
Chain of Nonstructural protein 1 (Q194T2 whole entry): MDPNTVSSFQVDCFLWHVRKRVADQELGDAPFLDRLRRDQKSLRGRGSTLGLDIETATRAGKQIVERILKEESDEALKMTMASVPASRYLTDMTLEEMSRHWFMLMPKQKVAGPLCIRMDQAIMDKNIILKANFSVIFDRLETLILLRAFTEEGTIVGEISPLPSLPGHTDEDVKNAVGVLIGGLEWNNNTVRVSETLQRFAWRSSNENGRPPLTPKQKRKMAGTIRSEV

[20] = Luminescence Cell-Based Dose Confirmation HTS to Identify Activators of 5'UTR Stem-Loop Driven Alpha-Synuclein mRNA Translation in H4 Neuroglioblastoma Cells. [Related pubchem assays: 1829 (Project Summary), 1814 (Primary HTS)]; type: functional
[21] = system: H4; test: Luminescence Cell-Based Dose Response HTS to Identify Activators of 5'UTR Stem-Loop Driven Prion Protein mRNA Translation in H4 Neuroglioblastoma Cells. [Related pubchem assays: 1829 (Project Summary), 1814 (Primary HTS)]; type: functional; conditions: Homo sapiens
[22] = Luminescence Cell-Based Dose Response HTS to Identify Activators of Luciferase Translation or Activity in H4 […] Cells. [Related pubchem assays: 1829 (Project Summary), 1814 (Primary HTS)]; type: functional

CSc1ncccc1C(=O)OCc1ccccc1
active: IC50 [1] 31.8 µM | IC50 [2] 9.53 µM | IC50 [3] 21.3 µM | IC50 [4] 43.6 µM

O=[N+]([O-])c1cc(CN2CCN(c3ccccc3)CC2)c(O)c2ncccc12
inactive: EC50 [10] > 180 µM | IC50 [15] 13.9 µM
> 195 µM (not active): EC50 [11]
active: EC50 [5] 0.295 µM | EC50 [7] 0.201 µM | AC50 [8] 1.17 µM | AC50 [9] 3.74 µM | AC50 [12] 49.4 µM | AC50 [13] 8.3 µM | EC50 [14] 0.809 µM | AC50 [16] 1.99 µM | AC50 [17] 2.28 µM | EC50 [18] 18 µM | IC50 [19] 3.42 µM
inconclusive: EC50 [6] 23 µM

O=c1cc(-c2cccs2)oc2ccc(Cl)cc12
inactive: IC50 [1] > 100 µM | IC50 [4] > 100 µM
active: EC50 [20] 3.83 µM | IC50 [2] 7.72 µM | IC50 [3] 18 µM | EC50 [22] 5.5 µM
> 120 µM (not active): EC50 [21]
